One assay concerns IκBα. Description: Confocal quantification of nuclear IκBα in PRMT2−/− fibroblasts. It counts as cell-based, mouse. The note with it: after TNF-α 30 min, 30 minutes LMB. The method, then:
Immunohistochemistry and confocal microscopy. PRMT2^−/− fibroblasts were transfected with a HA-tagged PRMT2 expression vector. 36 hrs after transfection the cells were treated with TNF-α for 30 min. The media was then removed and cells were incubated for an additional 30 minutes in the presence or absence of LMB. Cells were fixed, permeabilized with CytoFix-CytoPerm (BD Biosciences) for 20 minutes, and washed with Perm/Wash buffer (BD Biosciences). IκBα (Rabbit Polyclonal antibody, 1:1000; Santa Cruz Biotechnology) and HA (Rat Monoclonal antibody, 1:500; Roche) were diluted in Perm/Wash buffer and incubated for 1 hr. After two washes cells were stained with anti rabbit Alexa 488 and anti rat Alexa […] (1:1000, Invitrogen) for 30 min. Cells were washed and mounted with Ultracruz mounting media (Santa Cruz) containing DAPI. Confocal microscopy was performed using a Leica confocal microscope.

A further assay deals with Stat3. Description: Leptin-stimulated Stat3 tyrosine phosphorylation in VSMC nuclear extracts. The assay is classed as cell-based, mouse. The following applies: o-vanadate 200 μM pretreatment 15 min. As for the experimental part:
Cytoplasmic/nuclear extracts were prepared by Dounce homogenizing cells in Cytoplasmic lysis buffer (20 mM HEPES, pH7.9, 10 mM KCl, 1 mM MgCl2, 1% NP-40, 10% glycerol, 100 mM NaF, 1 mM Na3VO4, 1× protease inhibitors cocktail), and sedimenting nuclei by centrifugation at 1,000 rpm for 5 min. The supernatants were removed as samples of cytoplasmic fraction. The nuclei were extracted with nuclear lysis buffer (20 mM HEPES, pH7.9, 300 mM NaCl, 10 mM KCl, 1 mM MgCl2, 1% […], 10% glycerol, […], 1 mM Na3VO4, 1× protease inhibitors cocktail), and then subjected to the immunoblotting.
Immunoblotting was performed by boiling samples for 5 min at 95° C. followed by centrifugation for 1 min at 4° C. Aliquots of the supernatant were subjected to 7.5, 10% or 4-15% SDS-PAGE. Proteins in the gel were transferred to a nitrocellulose membrane by electroblotting. The membranes were treated with either anti-pTyr, anti-STAT3, anti-phospho STAT3, anti-α-metR, anti-IRS-1, anti-Flag, anti-phospho IRS-1, anti-arginine (mono- and di-methyl), or anti-β-actin antibodies followed by incubation with secondary antibodies conjugated with HRP. Immunoreactive proteins were detected either by ECL or by ECL plus system (Amersham Pharmacia Biotech). In some cases, bands were quantified using the NIH Image software (Image J version 1.2; National Institutes of Health, Bethesda, Md.). […]

In another assay the target is T1, RB (Homo sapiens, UniProt P06400).
T1 construct: coding region of RB cDNA was subcloned into pGEX-6P (Amersham/Pharmacia) for generation of GST-RB; made in house
T1 sequence (P06400 1-928): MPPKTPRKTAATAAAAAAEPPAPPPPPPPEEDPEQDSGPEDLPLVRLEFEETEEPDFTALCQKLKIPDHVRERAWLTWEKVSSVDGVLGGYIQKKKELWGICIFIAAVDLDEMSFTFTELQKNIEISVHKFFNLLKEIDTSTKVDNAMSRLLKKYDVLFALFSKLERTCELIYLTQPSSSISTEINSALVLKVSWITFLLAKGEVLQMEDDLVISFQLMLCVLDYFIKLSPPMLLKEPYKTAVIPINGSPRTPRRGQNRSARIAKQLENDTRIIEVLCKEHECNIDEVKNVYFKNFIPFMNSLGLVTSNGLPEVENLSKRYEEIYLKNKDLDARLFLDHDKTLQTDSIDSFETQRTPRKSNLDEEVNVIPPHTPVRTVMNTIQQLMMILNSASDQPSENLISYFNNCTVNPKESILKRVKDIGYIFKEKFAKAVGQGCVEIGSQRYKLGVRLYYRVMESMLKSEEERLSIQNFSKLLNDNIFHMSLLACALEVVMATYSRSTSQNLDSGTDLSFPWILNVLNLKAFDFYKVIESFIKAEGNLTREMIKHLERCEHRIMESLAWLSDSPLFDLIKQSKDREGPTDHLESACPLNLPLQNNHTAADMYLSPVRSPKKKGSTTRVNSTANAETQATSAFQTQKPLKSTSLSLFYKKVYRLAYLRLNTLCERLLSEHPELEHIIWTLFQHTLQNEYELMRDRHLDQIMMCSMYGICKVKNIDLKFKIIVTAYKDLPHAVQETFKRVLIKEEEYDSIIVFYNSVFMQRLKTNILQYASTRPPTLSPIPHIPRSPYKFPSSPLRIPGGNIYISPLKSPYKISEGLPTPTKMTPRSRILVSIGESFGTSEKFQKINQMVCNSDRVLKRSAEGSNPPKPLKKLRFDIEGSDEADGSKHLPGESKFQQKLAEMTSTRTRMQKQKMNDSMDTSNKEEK
The assay is described as follows: In vitro binding assay with GST-RB. The note with it: S35-labeled in vitro translated protein. The method, then:
The crude cell lysate of the GST-fusion proteins was prepared and purified according to the manufacture's protocol (Amersham/Pharmacia). [^35S]-methionine-labeled protein was produced by in vitro transcription/translation using the TNT T7-coupled reticulocyte lysate system (Promega). [^35S]-methionine-labeled protein and GST-fusion protein bound to glutathione sepharose 4B beads were incubated in 500 μl of HNE buffer (50 mM Hepes, pH 7.8, 150 mM NaCl, 1 mM EDTA, 1 mM DTT, 1% NP40, and 1× protease inhibitor mix (Complete: Roche)) at 4° C. for 1 hour. Beads were washed four times with HNE buffer, and then analyzed on an SDS-PAGE gradient gel (4-15%). For the detection of endogenous PRMT-2 interaction with RB, MEFs were lysed with WCL buffer (50 mM Hepes, pH 7.8, 400 mM NaCl, 2 mM EDTA, 1 mM DTT, 0.2% NP40, 10% Glycerol, 20 mM α-glycerophosphate, 5 mM NaF, 0.1 mM NaVO4, and 1× protease inhibitor mix). Then, 1 mg of whole cell extracts were incubated with HNE buffer without DTT and 3 μg of antibodies as indicated. The immune complexes were isolated using protein G beads, and washed four times with HNE buffer. The precipitated protein was boiled with SDS-loading buffer and resolved on SDS-PAGE. […]

The subject of another assay is HIV-1 LTR. Description: HIV-1 reporter transcription, transient co-transfection. It counts as cell-based, human. The following applies: 293T cells, expression plasmid co-transfected with HIV-1 reporter plasmid. The method, then: Cell culture, transfection, and reporter gene assays. The E1A-transformed, human kidney cell line, 293, and NIH-3T3 cells were maintained in Dulbecco's Modified Eagle Medium (DMEM) supplemented with 10% fetal calf serum and penicillin-streptomycin at 37° C. in 5% carbon dioxide in tissue culture grade Petri dishes. PRMT-2−/− mouse embryo fibroblasts (MEFs) and wild type MEFs were prepared from day 13.5 embryos and maintained in DMEM supplemented with 10% fetal calf serum. MEFs at passage 4 were used in this experiment. Lipofectamine Plus™ reagent (Boehringer Mannheim) was used to transfect both 293 and NIH-3T3 cells according to directions from the manufacturer. […] TNF-α stimulation of cells was done using recombinant TNF-α (200 U/ml) for 12 hours. Transfected cells were harvested at 36 hours, and CAT activity was assayed on 10 to 100 μg of protein from whole cell extracts. CAT assays were performed essentially as described in Leung, K. & Nabel, G. J. Nature 333, 776-778 (1988). To analyze the κB-reporter activity in MEFs, cells were transfected with the reporter (2×kB-Luc) and PRL-TK vector (Promega) using FuGENE6 transfection reagent (Roche). Luciferase activity was analyzed by Dual-Luciferase Reporter Assay System (Promega). […]

From patent publication US20060239990A1, “Protein Arginine N-Methyltransferase 2 (PRMT-2)” (priority 2003, published 2006) come the findings set out here.

For `CCC(=C/[C@H](C)C/C=C/C(C)=C/[C@@H](C)C(=O)[C@@H](C)[C@H](O)[C@@H](C)C/C(C)=C/C(=O)O)/C=C/[C@@H]1OC(=O)C=C[C@@H]1C` [LMB, leptomycin B], in the assay on IκBα, the “nuclear IκBα” value is “promoted nuclear accumulation of IκBα”.
For `[O]=[V]([O-])([O-])[O-]` [o-vanadate], the “leptin-stimulated tyrosine phosphorylation of Stat3” value is listed as “no enhancement of tyrosine phosphorylation of Stat3” with Stat3 (PRMT2−/− VSMC nuclear extracts) and “further enhanced leptin-stimulated tyrosine phosphorylation of Stat3” with Stat3 (wild-type VSMC nuclear extracts).
Take “PRMT1: human protein arginine methyltransferase 1, expression construct [reference compound]”: the “binding to RB” value with RB is reported as “do not bind RB”. Moreover, in the assay with HIV-1 LTR, the “stimulation of HIV-1 transcription” value was “about 10 fold”.
